# Results published in patent US4218443A, “Polyether ionophores as antiobesity and hypotriglyceridemic agents” (Hoffmann-La Roche Inc., priority 1979, dated 1980).
# Like-named read-outs stand apart in the source and are kept apart here.
# Tests used:
# pancreatic lipase = biological target: T1, pancreatic lipase (Rattus norvegicus, UniProt P27657); test: In vitro pancreatic lipase screen ([14C]-triolein assay); format: biochemical; conditions: read-out: Pancreatic Lipase Activity I50
# T1 construct: stimulated to release pancreatic proteins by addition of 10^-5 M carbachol; from tissue; host or cells: pancreatic lobules of fasted Charles River female rats; released pancreatic juice, centrifuged
# T1 sequence (P27657 17-465): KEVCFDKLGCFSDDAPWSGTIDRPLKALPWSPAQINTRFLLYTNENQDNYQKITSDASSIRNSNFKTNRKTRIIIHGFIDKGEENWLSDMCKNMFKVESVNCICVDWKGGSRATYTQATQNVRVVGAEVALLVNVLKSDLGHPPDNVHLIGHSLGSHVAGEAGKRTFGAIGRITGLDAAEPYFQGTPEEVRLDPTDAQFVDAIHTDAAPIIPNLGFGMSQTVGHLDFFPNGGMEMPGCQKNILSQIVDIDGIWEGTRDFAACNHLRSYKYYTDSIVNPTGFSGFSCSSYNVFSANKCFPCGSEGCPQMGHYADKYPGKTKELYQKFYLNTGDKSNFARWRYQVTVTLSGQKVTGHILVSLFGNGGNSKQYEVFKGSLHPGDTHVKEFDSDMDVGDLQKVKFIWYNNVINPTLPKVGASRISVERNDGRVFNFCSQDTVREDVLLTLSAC
# Description: The method for assaying pacreatic lipase in vitro using [^14 C]-triolein was based on the method of Garfinkel and Schotz for lipoprotein lipase, [A. S. Garfinkel and M. C. Schotz (1972). […] Glycerol tri[1-^14 C]oleate (32 mM) was emulsified in 0.2 M Tris-HCl pH 8 containing 0.15 M NaCl, bovine serum albumin (15 mg/ml) and sodium taurocholate (1.4 mM) by sonication for three, one min intervals at 80 watts. Final assay volume was 1.0 ml. The reaction was initiated by the addition of enzyme and was allowed to proceed for 10 min. The reaction was linear for up to 20 min. The liberated free fatty acids were extracted into 0.1 M KOH and quantitated in a liquid scintillation counter using 2,5-bis-2-(5-tertbutylbenzoxazolyl)-tniophene (BBOT) scintillation fluid (Yorktown Research, South Hackensack, N.J.).
# Ionophores were added to the above assay as solutions in either 90% ethanol or water, pH 8; 90% ethanol had no effect on the enzyme activity assayed by either method.
# [1] = system: fatty acid synthesis in isolated hepatocytes; test: In vitro fatty acid synthesis in isolated hepatocytes; format: cell-based, Charles River female rat; conditions: for activity at 1 µM / activity at 5 µM / activity at 10 µM / activity at 100 µM / activity at 250 µM / activity at 500 µM / activity at 1000 µM / activity at 2000 µM: Rattus norvegicus, Hepatocyte, 1 h, pH 7.4; for activity at 1 µM: 0.001 mM; for activity at 5 µM: 0.005 mM; for activity at 10 µM: 0.010 mM; for activity at 100 µM: 0.100 mM; for activity at 250 µM: 0.250 mM; for activity at 500 µM: 0.5 mM; for activity at 2000 µM: 2.000 mM
# Description: Hepatocytes were prepared from meal-fed Charles River female rats as described previously, [A. C. Sullivan, J. Triscari, J. G. Hamilton and J. A. Ontko (1977). Hypolipidemic activity of (-)-hydroxycitrate, Lipids, 12: 1-9]. Briefly, rats were anesthetized with Nembutal, livers were perfused in situ and hepatocytes were isolated in Krebs-Henseleit bicarbonate buffer, pH 7.4. Incubations with isolated hepatocytes were performed in triplicate at 37° C. Each incubation flask contained in a total volume of 2.1 ml, 10.5 mg cells (dry weight), 1 ml of Krebs-Henseleit buffer, pH 7.4, radioactive substrate (1 μCi [U-^14 C]alanine, 1 mCi^3 H2 O and 1 μmole alanine) and 0.3% glucose. The appropriate concentration of inhibitor was prepared in dimethylsulfoxide and added to the incubation flask. Dimethylsulfoxide had no effect on fatty acid synthesis. ^3 H2 O was used to determine the total rate of fatty acid synthesis independently of carbon precursors of acetyl CoA. [^14 C]alanine was used as an acetyl CoA precursor. Rates of fatty acid synthesis were determined as described previously, [A. C. Sullivan, J. Triscari, J. G. Hamilton and J. A. Ontko (1977). Hypolipidemic activity of (-)-hydroxycitrate, Lipids, 12: 1-9]. Data are expressed as nmoles ^3 H2 O or [^14 C]alanine converted into fatty acids per mg dry weight cells in 60 minutes.
# [2] = read-out: Fatty Acid Synthesis 3H2O
# [3] = read-out: Fatty Acid Synthesis [14C]alanine
# [4] = 1.0 mM, read-out: Fatty Acid Synthesis 3H2O
# [5] = 1.0 mM, read-out: Fatty Acid Synthesis [14C]alanine
compound,measurement,setting,value
CC[C@@H](C(=O)[C@@H](C)[C@@H](O)[C@H](C)CCc1c(I)cc(C)c(O)c1C(=O)O)[C@H]1O[C@](CC)([C@H]2CC[C@](O)(CC)[C@H](C)O2)C[C@@H]1C [Iodolasalocid],IC50,pancreatic lipase,260 µM
"CC[C@@H](C(=O)[C@@H](C)[C@@H](O)[C@H](C)CCc1ccc(C)c(O)c1C(=O)O)[C@H]1O[C@](CC)([C@H]2CC[C@](O)(CC)[C@H](C)O2)C[C@@H]1C [Lasalocid,Sodium]",activity at 1 µM,[1]; [2],97%
same,activity at 1 µM,[1]; [3],88%
same,activity at 5 µM,[1]; [2],74%
same,activity at 5 µM,[1]; [3],66%
same,activity at 10 µM,[1]; [2],61%
same,activity at 10 µM,[1]; [3],66%
same,activity at 100 µM,[1]; [2],4%
same,activity at 100 µM,[1]; [3],0%
same,activity at 250 µM,[1]; [2],6%
same,activity at 250 µM,[1]; [3],1%
same,activity at 500 µM,[1]; [2],7%
same,activity at 500 µM,[1]; [3],3%
same,activity at 1000 µM,[1]; [4],11%
same,activity at 1000 µM,[1]; [5],0%
CCC(C(=O)O)C1CCC(C)C(C(C)C(O)C(C)C(=O)C(CC)C2OC3(C=CCC4(CCC(C)(C5CCC(O)(CC)C(C)O5)O4)O3)C(C)CC2C)O1 (stereo not drawn) [Deoxy-(0-8)-epi-17-salinomycin],IC50,pancreatic lipase,600 µM
"CC[C@@H](C(=O)[C@@H](C)[C@@H](O)[C@H](C)CCc1c([N+](=O)[O-])cc(C)c(O)c1[N+](=O)[O-])[C@H]1O[C@](CC)([C@H]2CC[C@](O)(CC)[C@H](C)O2)C[C@@H]1C [Dinitrodescarboxylasalocid,Sodium]",activity at 1 µM,[1]; [2],113%
same,activity at 1 µM,[1]; [3],102%
same,activity at 5 µM,[1]; [2],116%
same,activity at 5 µM,[1]; [3],117%
same,activity at 10 µM,[1]; [2],160%
same,activity at 10 µM,[1]; [3],169%
same,activity at 100 µM,[1]; [2],2%
same,activity at 100 µM,[1]; [3],0%
same,activity at 250 µM,[1]; [2],3%
same,activity at 250 µM,[1]; [3],0%
same,activity at 500 µM,[1]; [2],3%
same,activity at 500 µM,[1]; [3],0%
same,activity at 1000 µM,[1]; [4],4%
same,activity at 1000 µM,[1]; [5],0%
same,activity at 2000 µM,[1]; [2],7%
same,activity at 2000 µM,[1]; [3],0%
CCC(C(=O)C(C)C(O)C(C)CCc1ccc(C)c(O)c1C(=O)O)C1OC(CC)(C2CCC(CC)(C(C)O)O2)CC1C (centres unmarked) [Isolasalocid A],IC50,pancreatic lipase,390 µM
CO[C@@H]1C[C@@H](C[C@H]2CC[C@H](C)[C@H]([C@@H](C)C(=O)O)O2)O[C@]2(O[C@](C)([C@H]3CC[C@@](C)([C@@H]4O[C@@H]([C@H]5O[C@@](O)(CO)[C@H](C)C[C@@H]5C)C[C@@H]4C)O3)C[C@H]2C)[C@@H]1C [Nigericin],IC50,pancreatic lipase,2500 µM
CC[C@@H](C(=O)[C@@H](C)[C@@H](O)[C@H](C)CCc1c([N+](=O)[O-])cc(C)c(O)c1C(=O)O)[C@H]1O[C@](CC)([C@H]2CC[C@](O)(CC)[C@H](C)O2)C[C@@H]1C [Nitrolasalocid],IC50,pancreatic lipase,1320 µM
CNc1ccc2oc(C[C@H]3O[C@@]4(CC[C@H]3C)O[C@H]([C@H](C)C(=O)c3ccc[nH]3)[C@H](C)C[C@H]4C)nc2c1C(=O)O [Calcimycin],Fatty Acid Synthesis 3H2O,[1]; 1.0 mM,48 % of control
same,Fatty Acid Synthesis [14C]alanine,[1]; 1.0 mM,0 % of control
CCC(C(=NOC)C(C)C(O)C(C)CCc1ccc(C)c(O)c1C(=O)O)C1OC(CC)(C2CCC(O)(CC)C(C)O2)CC1C (centres unmarked) [Lasalocid methoxime],IC50,pancreatic lipase,200 µM
CCCCCCC(=O)Oc1c(C)ccc(CC[C@@H](C)[C@H](O)[C@H](C)C(=O)[C@H](CC)[C@H]2O[C@](CC)([C@H]3CC[C@](O)(CC)[C@H](C)O3)C[C@@H]2C)c1C(=O)O [Lasalocid Heptanoate],IC50,pancreatic lipase,220 µM
CO[C@H]1CC[C@H](O[C@@H]2C[C@@H]([C@@H](C)/C=C(\C)C(=O)[C@H](C)C[C@H](C)C(=O)O)O[C@@]3(CC[C@@](C)([C@H]4CC[C@@H](C)[C@@]5(O[C@@H]([C@H]6O[C@@](O)(CO)[C@H](C)C[C@@H]6C)C[C@@H]5C)O4)O3)[C@@H]2C)O[C@@H]1C [A-130A (Lenoremycin)],IC50,pancreatic lipase,150 µM
CC[C@@H](C(=O)[C@@H](C)[C@@H](O)[C@H](C)CCc1ccc(C)c(O)c1C(=O)O)[C@H]1O[C@](CC)([C@H]2CC[C@](O)(CC)[C@H](C)O2)C[C@@H]1C [Lasalocid],IC50,pancreatic lipase,100 µM
CCCCCCCCCCCCCCCCCC(=O)Oc1c(C)ccc(CC[C@@H](C)[C@H](O)[C@H](C)C(=O)[C@H](CC)[C@H]2O[C@](CC)([C@H]3CC[C@](O)(CC)[C@H](C)O3)C[C@@H]2C)c1C(=O)O [Lasalocid Stearate],IC50,pancreatic lipase,110 µM
CCCCCCCC(=O)Oc1c(C)ccc(CC[C@@H](C)[C@H](O)[C@H](C)C(=O)[C@H](CC)[C@H]2O[C@](CC)([C@H]3CC[C@](O)(CC)[C@H](C)O3)C[C@@H]2C)c1C(=O)O [Lasalocid Octanoate],IC50,pancreatic lipase,110 µM
CC[C@@H](C(=O)[C@@H](C)[C@@H](O)[C@H](C)CCc1c(Cl)cc(C)c(O)c1C(=O)O)[C@H]1O[C@](CC)([C@H]2CC[C@](O)(CC)[C@H](C)O2)C[C@@H]1C [Chlorolasalocid],IC50,pancreatic lipase,7000 µM
CC[C@@H](C(=O)[C@@H](C)[C@@H](O)[C@H](C)CCc1ccc(C)c(OC(C)=O)c1C(=O)O)[C@H]1O[C@](CC)([C@H]2CC[C@](O)(CC)[C@H](C)O2)C[C@@H]1C [Lasalocid Acetate],IC50,pancreatic lipase,120 µM
CC/C(=C\C=C\[C@@H]1C=C[C@@H]2[C@@H](CC)CC[C@H]2[C@@H]1C(=O)c1ccc[nH]1)[C@@H]1O[C@@H]([C@@H](C)C(=O)O)CC[C@@H]1C [X-14547A],IC50,pancreatic lipase,700 µM
CC[C@@H](C(=O)[C@@H](C)[C@@H](O)[C@H](C)CCc1ccc(C)c(OC(=O)c2ccc(Br)cc2)c1C(=O)O)[C@H]1O[C@](CC)([C@H]2CC[C@](O)(CC)[C@H](C)O2)C[C@@H]1C [Lasalocid 4-bromo benzoate],IC50,pancreatic lipase,130 µM
Lysocellin,IC50,pancreatic lipase,800 µM
C[C@H](CCC(=O)O)C[C@H](C)C[C@H](C)C(=O)/C=C(\O)[C@H](C)C[C@H](C)C/C=C/[C@@H](C)[C@@H](O)[C@@H](C)[C@@H](O)C[C@@H]1CC[C@@](C)([C@H]2CC[C@@](C)([C@@H](C)O)O2)O1 [Ionomycin],IC50,pancreatic lipase,960 µM
CCCCCC(=O)Oc1c(C)ccc(CC[C@@H](C)[C@H](O)[C@H](C)C(=O)[C@H](CC)[C@H]2O[C@](CC)([C@H]3CC[C@](O)(CC)[C@H](C)O3)C[C@@H]2C)c1C(=O)O [Lasalocid Hexanoate],IC50,pancreatic lipase,200 µM
